What was measured:
[1] = Measurement of count median diameter of residual aerosol in dilution with DMS (differential mobility spectrometer); assay type: physicochemical; settings: for Count median diameter: Experimental Example 1, DMS, reduced pressure 0.25 bar, primary dilution 25 L/min, secondary dilution 200-fold, weight addition ratio of Table 1; for count median diameter (result in words): Experimental Example 1, DMS
Description: Since the DMS measures an aerosol under reduced pressure (0.25 bar) and a high dilution condition, an aerosol with high volatility is easily vanished and gasified. In the case of an aerosol with relatively low volatility, a particle diameter distribution is obtained in terms of residual aerosol, although the aerosol is reduced by volatilization. In this case, if the diameters of generated aerosol particles are the same, the particle diameter distribution of the residual aerosol varies depending of the level of volatility. In this Example, a peak particle diameter based on the number is considered to indicate the stability under reduced pressure and a high dilution condition and thus is used as the index. A larger count median diameter means that an aerosol is more stably present, and a smaller count median diameter means that an aerosol is more unstable. Under the conditions of this experiment, the primary dilution was performed at 25 L/min, and the secondary dilution was set to 200-fold and performed. Note that a mass peak particle diameter immediately after the generation before dilution and pressure reduction were involved was also separately measured with Spraytec (Model STP5321, Malvern), and, in the types of additives and the range of the amounts of additives added in this Example, there was no difference, and the count median diameters were present at about 200 nm.

[2] = Measurement of solubility in glycerin (GC-FID); assay type: physicochemical; settings: Experimental Example 1, excess fatty acid in 2 g glycerin, standing 48 hours
Experimental: The solubility in glycerin is most preferably measured by a method for quantitatively determining a fatty acid dissolved in 2 g of glycerin. Specifically, after an excessive amount of a fatty acid is added to glycerin, the mixture is separated into two layers, for example, by standing at ordinary temperature for 24 hours or more or by centrifugal separation, 100 mg aliquot of glycerin is taken, and transferred and dissolved into 2 mL of methanol, and the amount of fatty acid dissolved in glycerin is quantitatively determined by gas chromatograph-flame ionized detector (GC-FID) or gas chromatograph-mass spectrometer (GC-MS).
If the amount of fatty acid excessively added is large, the separation into two layers becomes difficult, and thus it is necessary to add the fatty acid in a slightly excessive amount.

Row | SMILES | Count median diameter [1] | Solubility in glycerin [2] | count median diameter (result in words) [1]
1 | CCCCCCCC(=O)O [Comparative Example 2, Octanoic acid] | 38.7 nm |  | 
2 | CCCCCCCCCC(=O)O [Comparative Example 3, Decanoic acid] | 50.5 nm |  | 
3 | CCCCCCCCCCCCCC(=O)O [Comparative Example 4, Myristic acid] | 51.6 nm | 0.14 mg/g | 
4 | CCCCCCCCCCCCCCCCCCC(=O)O [Comparative Example 5, Nonadecanoic acid] | 74.6 nm | 0.09 mg/g | 
5 | CC/C=C\C/C=C\C/C=C\CCCCCCCC(=O)O [Comparative Example 6, Linolenic acid] |  | 0.32 mg/g | 
6 | CCCCC/C=C\C/C=C\CCCCCCCC(=O)O [Comparative Example 7, Linoleic acid] | 61.9 nm | 0.14 mg/g | 
7 | CCCCCCCC/C=C\CCCCCCCC(=O)O [Comparative Example 8, Oleic acid] | 55.1 nm | 1.82 mg/g | 
8 | CCCCCCCCCCCCCCCC(=O)O [Example 1, Palmitic acid] | 67.8 nm |  | 
9 | CCCCCCCCCCCCCCCCCC(=O)O [Example 2, Stearic acid] | 75.3 nm |  | large count median diameters
10 | CCCCCCCCCCCCCCCC(=O)O [palmitic acid] |  |  | large count median diameters

From EP4052593B1, “TOBACCO FILLER FOR HEAT-NOT-BURN TOBACCO PRODUCTS, HEAT-NOT-BURN TOBACCO PRODUCT, AND ELECTRICALLY HEATED TOBACCO PRODUCT” (Japan Tobacco Inc., priority 2019, dated 2021)
